Columns and labels:
Huh-7 = assay: Cytotoxicity against human Huh-7 cells assessed as reduction in cell viability; type: toxicity, cell-based; conditions: huh-7
SARS-CoV-2 [1] = assay: Antiviral activity against SARS-CoV-2 infected in human Calu-3 cells assessed as reduction in viral yield measured after 72 hrs by qRT-PCR analysis; type: functional, organism-based, Severe acute respiratory syndrome coronavirus 2; conditions: for EC90: Severe acute respiratory syndrome coronavirus 2, Calu-3, time 72 hrs
Human coronavirus OC43 = assay: Antiviral activity against Human coronavirus OC43 infected in Vero cells assessed as reduction in viral yield preincubated with virus for 1 hr followed by washout and compound treatment and measured after 3 days by qRT-PCR analysis; type: functional, organism-based; conditions: Betacoronavirus 1, Vero; for EC90: 72 h, time 3 day
SARS-CoV-2 [2] = assay: Antiviral activity against SARS-CoV-2 hCoV-19/USA/GA-EHC-2811C/2021 (Omicron B.1.1.529) infected in human Calu-3 cells assessed as reduction in viral yield measured after 48 hrs by qRT-PCR analysis; type: functional, organism-based; conditions: Severe acute respiratory syndrome coronavirus 2, hCoV-19/USA/GA-EHC-2811C/2021 (Omicron B.1.1.529); for EC50: Calu-3, 48 h; for EC90: Calu-3, time 48 hrs
[3] = Cytotoxicity against human PBMC cells assessed as reduction in cell viability; type: toxicity, cell-based; conditions: pbmc
SARS-CoV-2 [4] = assay: Antiviral activity against wild type SARS-CoV-2 WA1 infected in HEK293T cells measured after 48 hrs by Nano-Glo luciferase assay; type: functional, organism-based; conditions: Severe acute respiratory syndrome coronavirus 2, WA1, HEK-293T
[5] = Cytotoxicity against African green monkey Vero cells assessed as reduction in cell viability; type: toxicity, cell-based; conditions: chlorocebus sabaeus
CCRF-CEM = assay: Cytotoxicity against human CEM cells assessed as reduction in cell viability; type: toxicity, cell-based; conditions: ccrf-cem
SARS-CoV-2 [6] = assay: Antiviral activity against SARS-CoV-2 infected in Vero cells assessed as reduction in viral yield measured after 48 hrs by qRT-PCR analysis; type: functional, organism-based; conditions: Severe acute respiratory syndrome coronavirus 2, Vero; for EC50: 48 h; for EC90: time 48 hrs
[7] = (§1) Cytotoxicity against human Calu-3 cells assessed as reduction in cell viability; type: toxicity, cell-based; conditions: Calu-3 cells
SARS-CoV-2 [8] = assay: Antiviral activity against SARS-CoV-2 hCoV-19/USA-WA1/2020 Washington strain infected in Normal human bronchial/tracheal epithelial cells cultured in air-liquid interface media assessed as reduction in viral yield pretreated with compound followed by viral infection for 4 hrs post washout and measured 3 days after virus removal by qRT-PCR analysis; type: functional, organism-based; conditions: Severe acute respiratory syndrome coronavirus 2, hCoV-19/USA-WA1/2020 Washington, Epithelial cell
SARS-CoV-2 [9] = assay: Antiviral activity against wild type SARS-CoV-2 Omicron BA.1 infected in HEK293T cells measured after 48 hrs by Nano-Glo luciferase assay; type: functional, organism-based; conditions: Severe acute respiratory syndrome coronavirus 2, Omicron BA.1, HEK-293T
SARS-CoV-2 [10] = assay: Antiviral activity against SARS-CoV-2 infected in human Caco-2 cells assessed as reduction in viral yield measured after 72 hrs by qRT-PCR analysis; type: functional, organism-based, Severe acute respiratory syndrome coronavirus 2; conditions: for EC90: Severe acute respiratory syndrome coronavirus 2, Caco-2, time 72 hrs
[11] = (§2) Cytotoxicity against human Caco-2 cells assessed as reduction in cell viability; type: toxicity, cell-based; conditions: Caco-2 cells
[12] = Solubility of compound in PBS; type: physicochemical; conditions: buffer
SARS-CoV-2 [13] = assay: Selectivity ratio of EC50 for antiviral activity against SARS-CoV-2 infected in Vero cells to EC50 for antiviral activity against SARS-CoV-2 infected in human Caco-2 cells; type: functional, Severe acute respiratory syndrome coronavirus 2
SARS-CoV-2 [14] = assay: Selectivity ratio of EC50 for antiviral activity against SARS-CoV-2 infected in Vero cells to EC50 for antiviral activity against SARS-CoV-2 infected in human Calu-3 cells; type: functional, Severe acute respiratory syndrome coronavirus 2
Calu-3 = assay: as §1; type: toxicity, cell-based; conditions: calu-3
Caco-2 = assay: as §2; type: toxicity, cell-based; conditions: caco-2

Row | SMILES | CC50 (Huh-7) | EC50 (Human coronavirus OC43) | EC90 (Human coronavirus OC43) | CC50 [3] | CC50 (CCRF-CEM) | EC50 (SARS-CoV-2 [6]) | EC90 (SARS-CoV-2 [6]) | CC50 ([5]; vero) | also measured
1 | CCC(CC)COC(=O)[C@H](C)N[P@](=O)(OC[C@H]1O[C@@](C#N)(c2ccc3c(N)ncnn23)[C@H](O)[C@@H]1O)Oc1ccccc1 | 1.4 µM | 0.01 µM | 0.03 µM | 4.9 µM | 11.2 µM | 3.2 µM | 4.7 µM |  | EC90 (SARS-CoV-2 [1]): 0.7 µM; EC50 (SARS-CoV-2 [2]): 0.2 µM; EC90 (SARS-CoV-2 [2]): 0.6 µM; EC50 (SARS-CoV-2 [4]): 0.01 µM; CC50 ([5]; Vero cells): > 100 µM; CC50 [7]: > 100 µM; EC50 (SARS-CoV-2 [8]): 0.5 µM; EC90 (SARS-CoV-2 [8]): 0.9 µM; EC50 (SARS-CoV-2 [9]): 0.014 µM; EC50 (SARS-CoV-2 [10]; Severe acute respiratory syndrome coronavirus 2, Caco-2, 72 h): 0.03 µM; EC90 (SARS-CoV-2 [10]): 0.2 µM; CC50 [11]: > 100 µM
2 | CC(C)C[C@H](NC(=O)[C@H](Cc1ccc(O)cc1)NC(=O)OCc1ccccc1)C(=O)N[C@H](C=O)C[C@@H]1CCCNC1=O | > 100 µM | 8.5 µM | 47.6 µM | > 100 µM | > 100 µM | > 10 µM | > 10 µM | > 100 µM | 
3 | Cc1cc(C(=O)N[C@@H](Cc2cccc3ccccc23)C(=O)N[C@@H](CC(C)C)C(=O)N[C@@H](C[C@@H]2CCCNC2=O)C(O)S(=O)(=O)[O-])no1.[Na+] (stereo partly specified) | 51.1 µM | 0.3 µM |  | 58.6 µM | 24.3 µM | 4.5 µM | 9.3 µM | > 100 µM | EC50 (SARS-CoV-2 [1]; Severe acute respiratory syndrome coronavirus 2, Calu-3, 72 h): 1.2 µM; EC90 (SARS-CoV-2 [1]): 5.3 µM; solubility [12]: 400 µg/mL; EC50 (SARS-CoV-2 [2]): 0.8 µM; EC90 (SARS-CoV-2 [2]): 2.7 µM; Ratio EC50 (SARS-CoV-2 [13]): 15; Ratio EC50 (SARS-CoV-2 [14]): 3; CC50 (Calu-3): > 100 µM; EC50 (SARS-CoV-2 [8]): 0.4 µM; EC90 (SARS-CoV-2 [8]): 0.7 µM; EC90 (SARS-CoV-2 [10]): 1.7 µM; CC50 (Caco-2): > 100 µM
4 | Cc1cc(C(=O)N[C@@H](Cc2cccc3ccccc23)C(=O)N[C@@H](CC(C)C)C(=O)N[C@@H](C[C@@H]2CCCNC2=O)C(O)C(=O)NC2CC2)no1 (stereo partly specified) | > 100 µM | 36.7 µM | 87.4 µM | > 100 µM | > 100 µM | > 10 µM | > 10 µM | > 100 µM | 
5 | CC(C)C[C@H](NC(=O)[C@H](Cc1cccc2ccccc12)NC(=O)OCc1ccccc1)C(=O)N[C@H](C#N)C[C@@H]1CCCNC1=O | > 100 µM | 0.7 µM | 5.1 µM | > 100 µM | > 100 µM | > 10 µM | > 10 µM | > 100 µM | 
6 | CC(C)C[C@H](NC(=O)[C@H](Cc1ccc(F)cc1)NC(=O)OCc1ccccc1)C(=O)N[C@H](C=O)C[C@@H]1CCCNC1=O | > 100 µM | 0.8 µM | 2.6 µM | > 100 µM | > 100 µM | 6.7 µM | 7.4 µM | > 100 µM | 
7 | CC(C)C[C@H](NC(=O)[C@H](Cc1cccc2ccccc12)NC(=O)OCc1ccccc1)C(=O)N[C@H](/C=C(\C#N)C(N)=O)C[C@@H]1CCCNC1=O | 29 µM | 0.9 µM | 7 µM | > 100 µM | 29 µM | > 10 µM | > 10 µM | > 100 µM | 
8 | CC(C)C[C@H](NC(=O)[C@H](Cc1cccc2ccccc12)NC(=O)OCc1ccccc1)C(=O)N[C@H](C=O)CNC(=O)N1CCC1 | 43.6 µM | 18 µM | 84 µM | > 100 µM | 43.6 µM | > 10 µM | > 10 µM | > 100 µM | 
